Experimental data as given in patent publication US11850220B2 (Augusta University Research Institute, Inc., priority 2020, dated 2023).

What was measured:
[1] = tested on: carrageenan-induced paw edema; test: carrageenan-induced paw edema technique (anti-inflammatory); type: in vivo; conditions: for Observed (1/property): 1/(% inhibition of edema thickness at 3 h effect); as to Observed (1/property): test concentration or dose not given here; as to Potency (% Inhibition relative to indomethacin at 3 h effect): test concentration or dose not given here
From the text: Anti-inflammatory properties of the ibuprofen-amino acid conjugate (5a-j) and ibuprofen-amino acid-4-aminophenol conjugates 7a-j were studied by the standard carrageenan-induced paw edema technique (Naumov, R. N. et al., Bioorg. Med. Chem. Lett. 2015, 25, 2314-2320; Tiwari, A. D. et al., Org. Biomol. Chem. 2014, 12, 7238-7249).

hot plate = hot plate technique (central analgesic); type: in vivo; conditions: for Potency: Relative to indomethacin at 120 min.
[2] = tested on: acetic acid-induced abdominal writhing; test: acetic acid-induced abdominal writhing technique (peripheral analgesic); type: in vivo; conditions: for Potency: Relative to indomethacin; for % Inhibition/protection / Writing reflex ± SEM: in vivo; as to % Inhibition/protection: test concentration or dose not given here; as to Writing reflex ± SEM: test concentration or dose not given here
animal gastric mucosa = test: ulcerogenic liability; type: in vivo
[3] = % inhibition of edema thickness at 3 h effect, Table 7
[4] = anti-inflammatory property (% inhibition of edema at 3 h), Table 8
[5] = same dose as anti-inflammatory testing

SMILES	% inhibition of edema ([1]; 1 h)	Mean edema thickness ([1]; 1 h)	% inhibition of edema ([1]; 2 h)	Mean edema thickness ([1]; 2 h)	% inhibition of edema ([1]; 3 h)	Mean edema thickness ([1]; 3 h)	% inhibition of edema ([1]; 4 h)	Mean edema thickness ([1]; 4 h)	% inhibition of edema ([1]; 24 h)	Mean edema thickness ([1]; 24 h)	% protection (hot plate; After 30 min.)	Latency period ± SEM (hot plate; After 30 min.)	% protection (hot plate; After 60 min.)	Latency period ± SEM (hot plate; After 60 min.)	% protection (hot plate; After 90 min.)	Latency period ± SEM (hot plate; After 90 min.)	% protection (hot plate; After 120 min.)	Latency period ± SEM (hot plate; After 120 min.)	Potency (hot plate)	Potency [2]	other results
CSCC[C@H](NC(=O)C(C)c1ccc(CC(C)C)cc1)C(=O)Nc1ccc(O)cc1 (stereo partly drawn) [Compound 7i, (2S)-N-(4-Hydroxyphenyl)-2-(2-(4-isobutylphenyl)propanamido)-4-(methylthio)butanamide]	34%	0.81 ± 0.04 mm	48%	0.79 ± 0.04 mm	56%	0.57 ± 0.02 mm	49%	0.64 ± 0.03 mm	5%	0.18 ± 0.02 mm	(86.4) %	4.51 ± 0.07 s	(90.1) %	4.24 ± 0.05 s	(97.7) %	4.35 ± 0.02 s	(121.5) %	4.85 ± 0.04 s	215	128	Observed (1/property) ([1]; Table 7): 0.01786; Observed property [1, 3]: 56%; Observed property [1, 4]: 56%; Potency (% Inhibition relative to indomethacin at 3 h effect) [1]: 70%; % Inhibition/protection [2]: 70.4%; Writing reflex ± SEM [2]: 28.8 ± 1.0; melting point: 190.8 °C
CC(C)Cc1ccc(C(C)C(=O)NCCCC(=O)O)cc1 (centres unmarked) [Compound 5d, 4-(2-(4-Isobutylphenyl)propanamido)butanoic acid]	22%	0.96 ± 0.06 mm	28%	1.09 ± 0.07 mm	60%	0.52 ± 0.04 mm	13%	1.09 ± 0.05 mm	58%	0.08 ± 0.02 mm	(34.7) %	3.26 ± 0.12 s	(19.3) %	2.66 ± 0.04 s	(13.2) %	2.49 ± 0.03 s	(8.2) %	2.37 ± 0.01 s	14	7	Observed (1/property) ([1]; Table 7): 0.01667; Observed property [1, 3]: 60%; Observed property [1, 4]: 60%; Potency (% Inhibition relative to indomethacin at 3 h effect) [1]: 75%; % Inhibition/protection [2]: 3.8%; Writing reflex ± SEM [2]: 93.6 ± 2.6; melting point: 78.3 °C
CC(C)Cc1ccc(C(C)C(=O)N[C@@H](C)C(=O)Nc2ccc(O)cc2)cc1 (stereo partly drawn) [Compound 7b, (2S)-N-(4-Hydroxyphenyl)-2-(2-(4-isobutylphenyl)propanamido)propanamide]	21%	0.97 ± 0.05 mm	25%	1.13 ± 0.06 mm	62%	0.50 ± 0.02 mm	44%	0.70 ± 0.03 mm	5%	0.18 ± 0.02 mm	(74.0) %	4.21 ± 0.14 s	(78.5) %	3.98 ± 0.09 s	(75.0) %	3.85 ± 0.05 s	(60.7) %	3.52 ± 0.06 s	107	132	Observed (1/property) ([1]; Table 7): 0.01613; Observed property [1, 3]: 62%; Observed property [1, 4]: 62%; Potency (% Inhibition relative to indomethacin at 3 h effect) [1]: 78%; % Inhibition/protection [2]: 72.6%; Writing reflex ± SEM [2]: 26.7 ± 1.1; melting point: 193.7 °C
CC(C)Cc1ccc(C(C)C(=O)NCC(=O)O)cc1 (centres unmarked) [Compound 5a, (2-(4-Isobutylphenyl)propanoyl)glycine]	53%	0.58 ± 0.02 mm	66%	0.51 ± 0.04 mm	72%	0.37 ± 0.06 mm	67%	0.41 ± 0.04 mm	68%	0.06 ± 0.01 mm	(15.3) %	2.79 ± 0.03 s	(28.3) %	2.86 ± 0.04 s	(29.1) %	2.84 ± 0.02 s	(29.7) %	2.84 ± 0.05 s	52	83	Observed (1/property) ([1]; Table 7): 0.01389; Observed property [1, 3]: 72%; Observed property [1, 4]: 72%; Potency (% Inhibition relative to indomethacin at 3 h effect) [1]: 90%; % Inhibition/protection [2]: 45.6%; Writing reflex ± SEM [2]: 52.9 ± 1.3; % Incidence of ulcer divided by 10 (animal gastric mucosa; in vivo): 0; Average of ulcer number (animal gastric mucosa; in vivo): 0; Average severity of ulcer (animal gastric mucosa; in vivo): 0; Number of animals with ulcer (animal gastric mucosa; in vivo): 0; Ulcer index (animal gastric mucosa; in vivo): 0
CC(C)Cc1ccc(C(C)C(=O)N[C@H](C(=O)O)C(C)C)cc1 (some centres unmarked) [Compound 5h]	11%	1.09 ± 0.08 mm	14%	1.30 ± 0.07 mm	57%	0.56 ± 0.05 mm	49%	0.64 ± 0.06 mm	84%	0.03 ± 0.02 mm	(12.8) %	2.73 ± 0.05 s	(20.6) %	2.69 ± 0.04 s	(9.5) %	2.41 ± 0.02 s	(6.4) %	2.33 ± 0.02 s	11	54	Observed (1/property) ([1]; Table 7): 0.01754; Observed property [1, 3]: 57%; Observed property [1, 4]: 57%; Potency (% Inhibition relative to indomethacin at 3 h effect) [1]: 72%; % Inhibition/protection [2]: 29.6%; Writing reflex ± SEM [2]: 68.5 ± 2.0
CC(C)Cc1ccc(C(C)C(=O)O)cc1 (centres unmarked) [Ibuprofen, reference compound]	25%	0.92 ± 0.02 mm	37%	0.95 ± 0.03 mm	71%	0.38 ± 0.01 mm	49%	0.64 ± 0.02 mm	32%	0.13 ± 0.01 mm	(25.2) %	3.03 ± 0.04 s	(30.5) %	2.91 ± 0.02 s	(40.5) %	3.09 ± 0.04 s	(50.2) %	3.29 ± 0.03 s	89	93	% Inhibition/protection [2]: 50.8%; Writing reflex ± SEM [2]: 47.9 ± 2.1; % Incidence of ulcer divided by 10 (animal gastric mucosa; [5]): 3.33; Average of ulcer number (animal gastric mucosa; [5]): 0.33; Average severity of ulcer (animal gastric mucosa; [5]): 0.67; Number of animals with ulcer (animal gastric mucosa; [5]): 2/6
COc1ccc2c(c1)c(CC(=O)O)c(C)n2C(=O)c1ccc(Cl)cc1 [Indomethacin, reference compound]	44%	0.69 ± 0.05 mm	45%	0.83 ± 0.04 mm	80%	0.26 ± 0.03 mm	66%	0.43 ± 0.05 mm	53%	0.09 ± 0.02 mm	(30.6) %	3.16 ± 0.02 s	(35.4) %	3.02 ± 0.04 s	(49.5) %	3.29 ± 0.01 s	(56.6) %	3.43 ± 0.05 s	100	100	Potency (% Inhibition relative to indomethacin at 3 h effect) [1]: 100%; % protection (hot plate; After 0 min.): (6.4) %; Latency period ± SEM (hot plate; After 0 min.): 3.15 ± 0.03 s; % Inhibition/protection [2]: 54.9%; Writing reflex ± SEM [2]: 43.9 ± 1.9; % Incidence of ulcer divided by 10 (animal gastric mucosa; [5]): 10; Average of ulcer number (animal gastric mucosa; [5]): 2; Average severity of ulcer (animal gastric mucosa; [5]): 1.67; Number of animals with ulcer (animal gastric mucosa; [5]): 6/6; Ulcer index (animal gastric mucosa; [5]): 13.67
